Experimental data from publication PMC7429354, “Potentiating TMEM16A does not stimulate airway mucus secretion or bronchial and pulmonary arterial smooth muscle contraction” (FASEB BioAdvances, 2020).

Columns and labels:
[1] = molecular target: T1, TMEM16A (Rattus norvegicus, UniProt D4A915); experiment: QPatch automated whole-cell patch clamp, recombinant channel (potentiator, maximum […] efficacy); assay type: cell-based
T1 construct: gene Ano1; full-length (NM_01107564.1), stably expressed in a cell line
T1 sequence (D4A915 1-1105): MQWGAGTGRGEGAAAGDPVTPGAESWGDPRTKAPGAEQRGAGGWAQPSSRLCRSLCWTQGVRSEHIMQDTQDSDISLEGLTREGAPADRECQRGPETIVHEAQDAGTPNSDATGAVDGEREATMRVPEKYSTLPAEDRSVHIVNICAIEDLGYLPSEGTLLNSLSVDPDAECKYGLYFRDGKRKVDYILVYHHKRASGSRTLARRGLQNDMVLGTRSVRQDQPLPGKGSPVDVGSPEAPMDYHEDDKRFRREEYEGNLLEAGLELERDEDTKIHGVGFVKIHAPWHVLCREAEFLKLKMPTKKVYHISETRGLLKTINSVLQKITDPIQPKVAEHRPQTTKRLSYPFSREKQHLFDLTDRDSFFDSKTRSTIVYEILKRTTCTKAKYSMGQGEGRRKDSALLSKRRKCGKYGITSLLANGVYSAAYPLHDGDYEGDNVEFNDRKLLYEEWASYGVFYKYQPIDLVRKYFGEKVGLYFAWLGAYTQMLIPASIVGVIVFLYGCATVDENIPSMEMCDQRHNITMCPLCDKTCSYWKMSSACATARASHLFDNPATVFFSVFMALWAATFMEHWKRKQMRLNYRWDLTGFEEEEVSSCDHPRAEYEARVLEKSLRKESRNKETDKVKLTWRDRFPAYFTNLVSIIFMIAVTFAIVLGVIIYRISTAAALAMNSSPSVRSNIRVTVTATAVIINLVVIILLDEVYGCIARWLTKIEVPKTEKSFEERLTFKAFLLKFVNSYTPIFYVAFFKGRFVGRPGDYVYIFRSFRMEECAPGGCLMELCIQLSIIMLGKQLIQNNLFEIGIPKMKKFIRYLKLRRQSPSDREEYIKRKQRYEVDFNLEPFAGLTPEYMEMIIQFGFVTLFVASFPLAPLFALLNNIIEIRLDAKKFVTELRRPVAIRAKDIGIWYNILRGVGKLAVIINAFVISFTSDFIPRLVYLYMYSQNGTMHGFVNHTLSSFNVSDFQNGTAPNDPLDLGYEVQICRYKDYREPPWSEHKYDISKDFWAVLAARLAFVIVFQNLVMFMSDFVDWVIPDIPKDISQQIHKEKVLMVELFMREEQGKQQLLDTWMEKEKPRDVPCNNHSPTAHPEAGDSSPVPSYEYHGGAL

[2] = molecular target: T2, TMEM16A (Mus musculus, UniProt Q8BHY3); experiment: as above; assay type: cell-based
T2 construct: gene Ano1; full-length (NM_178642.5), stably expressed in CHO cells
T2 sequence (Q8BHY3 1-960): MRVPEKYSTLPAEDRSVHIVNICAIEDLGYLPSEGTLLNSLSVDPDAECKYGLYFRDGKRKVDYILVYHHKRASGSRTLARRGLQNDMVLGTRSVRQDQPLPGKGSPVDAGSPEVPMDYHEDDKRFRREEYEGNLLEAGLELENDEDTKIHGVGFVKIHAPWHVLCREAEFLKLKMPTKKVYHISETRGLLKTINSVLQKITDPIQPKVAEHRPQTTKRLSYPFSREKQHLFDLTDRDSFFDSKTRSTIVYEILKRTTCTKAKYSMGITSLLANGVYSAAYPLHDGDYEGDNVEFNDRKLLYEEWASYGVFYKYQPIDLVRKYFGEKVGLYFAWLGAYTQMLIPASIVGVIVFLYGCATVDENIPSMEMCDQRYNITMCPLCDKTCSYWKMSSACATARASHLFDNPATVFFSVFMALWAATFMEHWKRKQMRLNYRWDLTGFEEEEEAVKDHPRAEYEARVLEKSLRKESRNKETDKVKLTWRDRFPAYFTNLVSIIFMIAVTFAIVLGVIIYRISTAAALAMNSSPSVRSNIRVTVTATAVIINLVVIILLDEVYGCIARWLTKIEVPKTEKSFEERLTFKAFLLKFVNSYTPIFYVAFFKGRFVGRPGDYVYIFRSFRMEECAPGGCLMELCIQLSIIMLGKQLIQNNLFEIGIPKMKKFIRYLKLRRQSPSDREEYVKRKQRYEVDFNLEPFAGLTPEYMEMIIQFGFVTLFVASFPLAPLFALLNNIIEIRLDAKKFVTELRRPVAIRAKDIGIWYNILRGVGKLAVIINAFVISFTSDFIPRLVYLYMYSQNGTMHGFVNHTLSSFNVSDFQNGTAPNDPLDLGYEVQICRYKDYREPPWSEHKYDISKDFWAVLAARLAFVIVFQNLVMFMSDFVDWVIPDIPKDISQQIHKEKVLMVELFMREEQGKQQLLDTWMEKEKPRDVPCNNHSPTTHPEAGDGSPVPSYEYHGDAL

Substance	EC50 [1]	EC50 [2]
ETX001	88 nM	
ETX004		38 nM
